In patent publication US20120040956A1, “INHIBITORS OF HIF-1 PROTEIN ACCUMULATION” (INTERMED DISCOVERY GMBH, priority 2008, published 2012):

Key:
HIF-1 = assay: HIF-1-dependent luciferase reporter gene activity in 293T cells under hypoxia; type: cell-based, human; conditions: for time-dependency of inhibition of HIF-1-dependent luciferase expression: 250 nM, added 4 hours after induction of hypoxia (8 h, 1% O2)
Protocol: A HIF-1-dependent luciferase reporter gene was transfected into 293T cells by transfection with Rotifect™ (Trademarked by Carl Roth GmbH; Karlsruhe, Germany) or alternatively into Jurkat T cells by electroporation. Both cell lines were transfected with a HIF-1-dependent reporter gene. The next day, cells were preincubated for 1 h with the indicated, submicromolar concentrations of the test compounds and then incubated for further 8 h under normoxic or hypoxic (1% O2) conditions. After that, cells were harvested followed by the analysis of luciferase activity in a luminometer.
A HIF-1-dependent luciferase reporter gene was transfected into 293T cells. The next morning, cells were pretreated for 1 h with the indicated concentrations of compounds, followed by induction of hypoxia (hypoxia chamber) for 8 h. Subsequently cells were harvested and lyzed. Luciferase activity in cell extracts was measured in a luminometer (Duo Lumat LB 9507, Berthold) by injecting 20 microliter of assay buffer to 20 microliter of extract. Light emission was measured for 10 s, relative light units are given.
After transfection of 293T cells with a HIF-1-dependent luciferase reporter gene, cells were further incubated under normoxic or hypoxic (8 h, 1% O2) conditions as shown in FIG. 4. Effectively blocking concentrations of the IMDs (250 nM each) were added either 1 hour prior to hypoxia or 2 and 4 hours after induction of hypoxia.

HIF-1α mRNA = assay: Hif-1α mRNA expression by real-time PCR; type: cell-based; conditions: human cells, 250 nM for 3 h, normoxic or hypoxic (45 minutes, 1% O2)
Protocol: In order to investigate whether the compounds of the invention do exert their HIF-1-1 suppressive action via inhibition of HIF-1-1 transcription the compounds were tested for their effects on HIF-1α mRNA production. In all experiments, human cells were exposed to efficiently blocking concentrations (250 nM) of the test compounds for 3 h. Then cells were further cultivated under normoxic or hypoxic conditions (45 minutes, 1% O2) respectively. Afterwards cell samples were harvested and RNA was extracted. cDNA was synthesized using specific primers and the PE Applied Biosystems Reverse Transcription Reagents. Real-time PCR was performed by using the SYBR Green I detection chemistry (Applied Biosystems) and an ABI Prism 7300 system. The expression of Hif-1α was quantified and results were normalized to Hprt1 and β-Actin (“housekeeping-gene”) expression. The relative abundance of the different genes was calculated by the comparative CT method. HIF-1α transcription of normoxic control cells was arbitrarily set to 1. […] Therefore an effect of IMD-compounds on HIF-1-dependent gene expression seems not to be mediated on HIF-1α transcription (FIG. 5).

HUVEC [1] = assay: Spheroid-based angiogenesis assay, Deferoxamine (hypoxia) induced HUVEC sprouting; type: cell-based, human
Protocol: (§1) Prior application the stock solution [100 mM] of IMD-019064 was diluted 1:10 in DMSO and serially diluted in half logarithmic steps covering the concentration range from 10 mM to 1 μM using 100% DMSO. The final assay concentration ranged from 100 μM to 10 nM with a final DMSO concentration in the assay of 1%. The experiments were pursued in modification of the originally published protocol (Korff and Augustin: J Cell Sci 112: 3249-58, 1999). In brief, spheroids were prepared as described by Korff and Augustin: J Cell Biol 143: 1341-52, 1998) by pipetting 500 endothelial cells (EC) in a hanging drop on plastic dishes to allow overnight spheroid aggregation. 50 EC spheroids were then embedded in 0.9 ml of a 3D collagen matrix and pipetted into individual wells of a 24 well plate to allow polymerization.
(§2) Plates were incubated at 37° C. for 24 hours and fixed by adding 4% paraformaldehyde. The cumulative sprout length of 10 randomly selected spheroids per data point was analyzed and the relative inhibition by the test compound determined. Fitting of IC50 curves and calculation of IC50 values was performed with GraphPad Prism 5.01. Sprouting intensity of EC and fibroblast spheroids was quantitated by an image analysis system using an inverted microscope and the digital imaging software Analysis 3.2 (Soft imaging system, Munster, Germany). In parallel NHDF (fibroblast) spheroids were embedded in a 3D collagen gel and treated for 24 h with different concentrations of IMD-019064. The cumulative sprout length of 10 randomly selected spheroids per data point was analyzed according to the procedure used for the HUVEC experiment.
The same assays were performed with IMD-026260; IMD-026259; Sutent® (Sunitinib) and Sorafenib (Nexavar®) (see Table 3 for final compound concentrations).

HIF-1α protein = assay: Hypoxia induced HIF-1α protein accumulation in 293T cells (immunoblotting); type: cell-based, human; conditions: 250 nM, 1 h preincubation, hypoxia 4 h, 1% O2
Protocol: Effects of IMD-026259, IMD-026260 and IMD-019064 on the stabilisation/accumulation of HIF-1α protein were investigated. 293T cells were preincubated with the indicated concentrations of all three compounds. After 1 h of pre-incubation, 293T cells were pre-incubated with the indicated concentrations of compounds and then further incubated under normoxic or hypoxic (4 h, 1% O2) conditions respectively. After lysis of cells in 1×SDS sample buffer and sonication, the samples were analyzed for HIF-1α abundance by immunoblotting.

NHDF (fibroblast) = NHDF (fibroblast) spheroid sprouting/scattering in 3D collagen gel; type: cell-based; conditions: Homo sapiens, 24 h, read-out: IC50, NHDF fibroblast spheroid sprouting/scattering
Protocol: as §1, with “50 EC spheroids were then embedded in 0.9 ml of a 3D collagen matrix and pipetted into individual wells of a 24 well plate to allow polymerization.” left out
as §2, with “Fitting of IC50 curves and calculation of IC50 values was performed with GraphPad Prism 5.01.” left out, “In parallel NHDF (fibroblast) spheroids were embedded in a 3D collagen gel and treated for 24 h with different concentrations of IMD-019064.” left out, “experiment. […]” for “experiment.”

[2] = test system: cell-free protein translation (BMV mRNA, ribosomes); assay: Cell-free protein translation of Brome mosaic virus (BMV) mRNA with ribosomes; type: biochemical; conditions: for effect on in vitro protein translation: relevant (nM) concentrations, SDS-PAGE
Protocol: The effect of IMD-019064 on cell-free protein translation in vitro was investigated (see also assay principle in FIG. 8). Brome mosaic virus (BMV) mRNA encoding for 4 different viral proteins was incubated with ribosomes in the presence and absence of IMD-019064 (FIG. 9a), IMD-026259, IMD-026260 (FIG. 9b), or cycloheximide (Chx, 10 μM) (positive control) and the formed proteins analyzed by SDS-PAGE.
Panels show representative SDS-PAGE protein gels. Vehicle-containing translation reactions (Veh) represent 100% translation efficacy, while Cycloheximide (Chx; 10 μg/ml) a known inhibitor of protein translation that was used as a positive control does show significant protein reduction.

endothelial cells = assay: Incorporation of radiolabeled amino acids into unstimulated and IL-1b-stimulated endothelial cells; type: cell-based
Protocol: Compounds of the formula (I) have been reported in the literature to be un-specific inhibitors of protein synthesis. Thus, the question whether IMD-019064 (a rocaglaol derivative) is a direct inhibitor of protein synthesis has been addressed at different levels. Cellular assays (incorporation of radiolabeled amino acids into unstimulated and IL-1b-stimulated endothelial cells) were performed in order to investigate if inhibition of activated signaling cascades (e.g. IL-1 signalling pathway) may contribute to inhibitory activity of IMD-019064.

IKKy/NEMO = assay: Cellular protein translation in 293T cells (anti-IKKy/NEMO immunoblotting); type: cell-based, human; conditions: 10 h and 24 h; for anti-IKKy/NEMO signal (cellular protein translation): 100 nM
Protocol: 293T cells were grown in the presence of the known translation inhibitor cycloheximide (10 μg/ml) and 100 nM of IMD-019064, IMD-026259 and IMD-026260 respectively. […] Cells were harvested after 10 h and 24 h and cell lysates were produced. Equal amounts of protein contained in the cell lysates were used for immunoblotting with anti-IKKy/NEMO antibodies as shown in FIG. 12. IKKy/NEMO is a constitutively expressed relatively labile protein. Thus successful inhibition of cellular protein translation should result in significant decline of anti-IKKy/NEMO signal.

HUVEC [3] = assay: Spheroid-based angiogenesis assay, VEGF-A induced HUVEC sprouting; type: cell-based, human; conditions: after hypoxic or VEGF induction, summary statement
Protocol: As described in Example 4 HUVEC spheroids were generated, cultivated and embedded in a 3D collagen gel and stimulated with Vascular Endothelial Growth Factor alpha [VEGF-A; 25 ng/ml] instead of deferoxamine. Cell spheroids were treated for 24 h with different concentrations of IMD-026259; IMD-026260; Sutent® (Sunitinib) and Sorafenib (Nexavar®) (in Molar [M], as indicated in Table 4; see also FIG. 14A).
The cumulative sprout length of 10 randomly selected spheroids per data point was analyzed and the relative inhibition by the test compound determined. Fitting of IC50 curves and calculation of IC50 values was performed with GraphPad Prism® 5.01 (trademarked by GraphPad Software Inc.). […] Results from the examples described above are summarized in FIG. 14b IC50 values are given in nM for in vitro angiogenesis (HUVEC sprouting) studies after hypoxic or VEGF induction.

[4] = test system: PDK1 (pyruvate dehydrogenase kinase1); assay: HIF-1 target gene PDK1 expression in 293T cells by real-time PCR; type: cell-based; conditions: Homo sapiens, HEK-293T, 1 h pretreatment, 8 h hypoxia, read-out: IC50, suppression of endogenous PDK1 gene expression
Protocol: Human 293T cells were cultivated either under normoxic conditions or under hypoxic conditions (1% oxygen) for 4 and 8 hs respectively. Cells were harvested, followed by the isolation of RNA and the generation of cDNAs from Oligo (dT)20 primers using a Reverse Transcriptase kit. Then gene expression was measured by real-time PCR for the following two selected HIF-1α target genes: LDH-A (lactate dehydrogenase isoform A), and PDK1 (pyruvate dehydrogenase kinase1). Real-time PCR was performed with cDNA using specific primers and the SYBR Green I detection chemistry system (Applied Biosystems), utilizing an ABI Prism 7300 system. Actin was also measured as an internal control. The relative abundance of the different genes was calculated by the comparative CT method. In order to facilitate comparison, gene expression under normoxic conditions was arbitrarily set to 1 for each of the three genes. Two independent experiments confirmed PDK1 as the gene which was induced most prominently compared to LDH.
To investigate the capability of the compounds to inhibit PDK1, 293T cells were pretreated for 1 h with 3 different concentrations of the respective inhibitors (IMD-019064; IMD-026259; and IMD-026260). Subsequently, cells were incubated under normoxic/hypoxic conditions for further 8 h and the expression of PDK1 was quantified by real-time PCR as described above.

SMILES | time-dependency of inhibition of HIF-1-dependent luciferase expression (HIF-1) | effect on Hif-1α mRNA production (HIF-1α mRNA) | effect on in vitro protein translation [2] | anti-IKKy/NEMO signal (cellular protein translation) (IKKy/NEMO) | inhibition of angiogenic sprouting in vitro (HUVEC sprouting) (HUVEC [3]) | other results
COc1ccc(C23Oc4cc(OC)cc(OC)c4C2(O)C(O)CC3c2cccc(F)c2)cc1 (centres unmarked) [IMD-019064, (1,3,3a,8b)-3-(3-fluorophenyl)-6,8-dimethoxy-3a-(4-methoxyphenyl)-2,3,3a,8b-tetrahydro-1H-benzo[d]cyclopenta[b]furan-1,8b-diol] | able to inhibit HIF-1-dependent luciferase expression even when added 4 hours after hypoxic induction | did not show any effects | No significant effect | did not result in reduced anti-IKKy/NEMO signals | potent inhibitors of angiogenic sprouting in vitro | IC50 (HUVEC [1]; Homo sapiens, HUVEC, 24 h, read-out: IC50, hypoxia induced EC (HUVEC) sprouting): 30 nM; difference in HUVEC and fibroblast sensitivity (HUVEC [1]; NHDF IC50 versus Deferoxamine-induced HUVEC IC50): factor six; block of HIF-1α protein accumulation (HIF-1α protein): almost completely block; IC50 (NHDF (fibroblast)): 180 nM; shift of the dose-response curve to higher concentrations, un-stimulated compared to IL-1 stimulated cells, inhibition of amino acid incorporation (endothelial cells): 20 factor
OC1CC(c2ccccc2)C2(c3ccc(Cl)cc3)Oc3cc(OCCN4CCCC4)ccc3C12O (centres unmarked) [IMD-026259, (1,3a,8b)-3a-(4-chlorophenyl)-3-phenyl-6-(2-(pyrrolidin-1-yl)ethoxy)-2,3,3a,8b-tetrahydro-1H-benzo[d]cyclopenta[b]furan-1,8b-diol] | able to inhibit HIF-1-dependent luciferase expression even when added 4 hours after hypoxic induction | did not show any effects | No significant effect | did not result in reduced anti-IKKy/NEMO signals | potent inhibitors of angiogenic sprouting in vitro | IC50 [4]: 9 nM; IC50 (HIF-1; Homo sapiens, HEK-293T, 1 h pretreatment, hypoxia 8 h, read-out: IC50, HIF-1 luciferase inhibitory activity): 19 nM
CNC(=O)c1cc(Oc2ccc(NC(=O)Nc3ccc(Cl)c(C(F)(F)F)c3)cc2)ccn1 [Nexavar, Sorafenib, reference compound] |  |  |  |  |  | activity on HUVEC sprouting (HUVEC [1]; HUVECs induced by Deferoxamine (hypoxia)): did not show any activity at all
C[C@@H]1C[C@@H]([C@H](O)CC2CC(=O)NC(=O)C2)C(=O)[C@@H](C)C1 [cycloheximide, reference compound] |  |  |  |  |  | effect on in vitro protein translation (positive control) ([2]; cycloheximide 10 μM / 10 μg/ml): potently suppressed formation of newly synthesized proteins; inhibition of cellular protein translation (positive control) (IKKy/NEMO; cycloheximide 10 μg/ml): powerful inhibition of protein translation
